Reference: US10618918B2, “Substituted boronic acids as antimicrobials” (priority 2015, dated 2020)
pKi: −log10 of the molar value.

Assays:
KP1004 KPC-2 [1] = experiment: Aztreonam potentiation (MPC@4), strain KP1004 KPC-2; conditions: minimum BLI concentration inhibiting growth with aztreonam 4 μg/mL; tested up to 40 μg/mL
AB1053 OXA-72 = experiment: Meropenem potentiation (MPC@8), strain AB1053 OXA-72; assay type: cell-based, Acinetobacter baumannii; conditions: minimum BLI concentration inhibiting growth with meropenem 8 μg/mL; tested up to 20 μg/mL
AB1054 OXA-23 = experiment: Meropenem potentiation (MPC@8), strain AB1054 OXA-23; assay type: cell-based, Acinetobacter baumannii; conditions: minimum BLI concentration inhibiting growth with meropenem 8 μg/mL; tested up to 20 μg/mL
KP1004 KPC-2 [2] = experiment: Biapenem potentiation (MPC@1), strain KP1004 KPC-2; assay type: cell-based; conditions: minimum BLI concentration inhibiting growth with biapenem 1 μg/mL; tested up to 40 μg/mL
Experimental: (§1) Biapenem was present in the test medium at 1 μg/mL. […] Table 3 summarizes the BLI potency of biapenem potentiation (MPC@1) for two strains overexpressing class A (KPC) and class D (OXA-48) carbapenemases. Biapenem MIC for each strain is also shown.

KP1005 CTX-M-14 = experiment: Tigemonam potentiation (MPC@4), strain KP1005 CTX-M-14; conditions: minimum BLI concentration inhibiting growth with tigemonam 4 μg/mL; tested up to 40 μg/mL
ECL1002 = experiment: Aztreonam potentiation (MPC@4), strain ECL1002; conditions: minimum BLI concentration inhibiting growth with aztreonam 4 μg/mL; tested up to 40 μg/mL
KP1086 OXA-48 = experiment: Biapenem potentiation (MPC@1), strain KP1086 OXA-48; assay type: cell-based; conditions: minimum BLI concentration inhibiting growth with biapenem 1 μg/mL; tested up to 40 μg/mL
Experimental: as §1

ec308 SHV-5 = experiment: Aztreonam potentiation (MPC@4), strain ec308 SHV-5; conditions: minimum BLI concentration inhibiting growth with aztreonam 4 μg/mL; tested up to 40 μg/mL
EC1010 CMY-6 = experiment: Aztreonam potentiation (MPC@4), strain EC1010 CMY-6; conditions: minimum BLI concentration inhibiting growth with aztreonam 4 μg/mL; tested up to 40 μg/mL
ec302 TEM-10 = experiment: Aztreonam potentiation (MPC@4), strain ec302 TEM-10; conditions: minimum BLI concentration inhibiting growth with aztreonam 4 μg/mL; tested up to 40 μg/mL
[3] = molecular target: purified class A, C and D enzymes (β-lactamases) (Escherichia coli, UniProt Q9L5C7); experiment: biochemical; assay type: biochemical; conditions: purified CTX-M-14; nitrocefin (NCF) as reporter substrate
Chain of purified class A, C and D enzymes (β-lactamases) (Escherichia coli, UniProt Q9L5C7) (Q9L5C7 entry or part of it): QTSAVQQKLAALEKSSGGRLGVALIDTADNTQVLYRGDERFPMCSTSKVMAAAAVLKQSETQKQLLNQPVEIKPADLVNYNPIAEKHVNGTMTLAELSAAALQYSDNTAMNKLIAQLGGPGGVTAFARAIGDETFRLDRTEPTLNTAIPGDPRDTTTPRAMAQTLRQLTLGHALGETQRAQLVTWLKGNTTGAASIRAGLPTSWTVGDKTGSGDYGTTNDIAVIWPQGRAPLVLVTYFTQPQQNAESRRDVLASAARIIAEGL

[4] = molecular target: purified class A, C and D enzymes (β-lactamases) (Klebsiella pneumoniae, UniProt Q6XEC0); experiment: biochemical; assay type: biochemical; conditions: purified OXA-48; nitrocefin (NCF) as reporter substrate
[5] = molecular target: T1, purified class A, C and D enzymes (β-lactamases) (Pseudomonas aeruginosa, UniProt P24735); experiment: biochemical; assay type: biochemical
T1 construct: rows headed: Ki (Pa-AmpC, NCF), uM; other: purified Pa-AmpC; nitrocefin (NCF) as reporter substrate
T1 sequence (P24735 whole entry): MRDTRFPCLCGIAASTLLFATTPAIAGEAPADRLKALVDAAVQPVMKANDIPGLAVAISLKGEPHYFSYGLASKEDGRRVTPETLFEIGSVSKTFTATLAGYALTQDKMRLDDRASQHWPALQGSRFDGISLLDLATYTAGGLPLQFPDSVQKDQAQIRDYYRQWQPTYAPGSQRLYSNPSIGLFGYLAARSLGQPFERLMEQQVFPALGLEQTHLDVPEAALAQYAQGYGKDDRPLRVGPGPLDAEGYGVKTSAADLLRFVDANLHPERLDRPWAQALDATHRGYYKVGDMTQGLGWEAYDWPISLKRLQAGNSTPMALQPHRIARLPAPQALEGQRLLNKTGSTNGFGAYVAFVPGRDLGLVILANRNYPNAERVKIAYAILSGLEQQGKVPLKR

[6] = molecular target: purified class A, C and D enzymes (β-lactamases) (Enterobacter cloacae, UniProt P05364); experiment: biochemical; assay type: biochemical
Chain of purified class A, C and D enzymes (β-lactamases) (Enterobacter cloacae, UniProt P05364) (P05364 21-381): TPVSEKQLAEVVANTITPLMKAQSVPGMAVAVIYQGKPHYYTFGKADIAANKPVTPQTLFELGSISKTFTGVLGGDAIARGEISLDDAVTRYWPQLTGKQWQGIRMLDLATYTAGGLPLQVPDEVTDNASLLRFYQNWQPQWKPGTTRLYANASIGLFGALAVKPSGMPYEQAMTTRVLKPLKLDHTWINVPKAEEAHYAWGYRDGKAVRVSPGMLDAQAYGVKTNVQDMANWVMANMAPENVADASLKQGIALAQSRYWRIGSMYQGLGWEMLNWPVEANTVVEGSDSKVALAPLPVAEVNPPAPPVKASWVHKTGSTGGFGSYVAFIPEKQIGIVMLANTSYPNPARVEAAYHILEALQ

[7] = molecular target: T2, purified class A, C and D enzymes (β-lactamases) (Acinetobacter baumannii, UniProt Q9L4P2); experiment: biochemical; assay type: biochemical; conditions: purified OXA-23; nitrocefin (NCF) as reporter substrate
T2 construct: rows headed: Ki (OXA-23, NCF), uM; other: purified OXA-23; nitrocefin (NCF) as reporter substrate
T2 sequence (Q9L4P2 whole entry): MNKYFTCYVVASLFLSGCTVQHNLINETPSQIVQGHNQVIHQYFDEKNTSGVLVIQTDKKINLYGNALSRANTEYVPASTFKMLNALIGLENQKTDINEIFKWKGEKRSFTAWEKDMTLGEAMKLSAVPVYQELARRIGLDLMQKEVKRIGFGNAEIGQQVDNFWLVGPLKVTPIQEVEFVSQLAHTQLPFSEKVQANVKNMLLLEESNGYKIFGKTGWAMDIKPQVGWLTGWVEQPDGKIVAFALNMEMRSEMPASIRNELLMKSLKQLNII

[8] = molecular target: purified class A, C and D enzymes (β-lactamases) (Klebsiella pneumoniae, UniProt Q9F663); experiment: biochemical; assay type: biochemical; conditions: purified KPC-2; nitrocefin (NCF) as reporter substrate
KP1009 CTX-M-15 = experiment: Aztreonam potentiation (MPC@4), strain KP1009 CTX-M-15; conditions: minimum BLI concentration inhibiting growth with aztreonam 4 μg/mL; tested up to 40 μg/mL
KP1010 SHV-12 = experiment: Aztreonam potentiation (MPC@4), strain KP1010 SHV-12; conditions: minimum BLI concentration inhibiting growth with aztreonam 4 μg/mL; tested up to 40 μg/mL

Row | SMILES | AZT MPC4 KPC-2 KP1004 (KP1004 KPC-2 [1]) | MPM MPC8 AB1053 OXA-72 (AB1053 OXA-72) | MPM MPC8 AB1054 OXA-23 (AB1054 OXA-23) | BPM MPC1 KP1004 KPC-2 (KP1004 KPC-2 [2]) | TIG MPC4 CTX-M-14 KP1005 (KP1005 CTX-M-14) | AZT MPC4 ECL1002 (ECL1002) | BPM MPC1 OXA-48 KP1086 (KP1086 OXA-48) | AZT MPC4 SHV-5 ec308 (ec308 SHV-5) | AZT MPC4 CMY-6 EC1010 (EC1010 CMY-6) | AZT MPC4 TEM-10 ec302 (ec302 TEM-10) | Ki (CTX-M-14, NCF), uM [3] | Ki (OXA-48, NCF), uM [4] | pKi [5] | Ki (P99, NCF), uM [6] | pKi [7] | Ki (KPC-2, NCF), uM [8] | AZT MPC4 CTX-M-15 KP1009 (KP1009 CTX-M-15) | AZT MPC4 SHV-12 KP1010 (KP1010 SHV-12)
1 | O=C([O-])c1c(OCCN2CCOCC2)ccc2c1O[B-](O)(O)CC2.[Na+].[Na+] [Compound 27, Disodium; 4,4-dihydroxy-8-(2-morpholinoethoxy)-5-oxa-4-boranuidabicyclo[4.4.0]deca-1(6),7,9-triene-7-carboxylate] | X (X = MPC@4 ≤ 5 μg/mL) | Y (Y = 5 μg/mL < MPC@1 ≤ 20 μg/mL) | Y (Y = 5 μg/mL < MPC@1 ≤ 20 μg/mL) | X (X = MPC@1 ≤ 5 μg/mL) | Z (Z = MPC@4 > 20 μg/mL) | X (X = MPC@4 ≤ 5 μg/mL) | Y (Y = 5 μg/mL < MPC@1 ≤ 20 μg/mL) | Y (Y = 5 μg/mL < MPC@4 ≤ 20 μg/mL) | X (X = MPC@4 ≤ 5 μg/mL) | Y (Y = 5 μg/mL < MPC@4 ≤ 20 μg/mL) | X (X = Ki ≤ 0.1 μM) | X (X = Ki ≤ 0.1 μM) | 6.00 to 7.00 | X (key: X = Ki ≤ 0.1 μM; Y = 0.1 μM < Ki ≤ 1 μM; Z = Ki > 1 μM) | > 7.00 | X (X = Ki ≤ 0.1 μM) | Y (Y = 5 μg/mL < MPC@4 ≤ 20 μg/mL) | X (X = MPC@4 ≤ 5 μg/mL)
2 | O=C([O-])c1c(OCc2ccncc2)ccc2c1O[B-](O)(O)CC2.[Na+].[Na+] [Compound 28, Disodium; 4,4-dihydroxy-8-(4-pyridylmethoxy)-5-oxa-4-boranuidabicyclo[4.4.0]deca-1(6),7,9-triene-7-carboxylate] | X (X = MPC@4 ≤ 5 μg/mL) | X (X = MPC@1 ≤ 5 μg/mL) | X (X = MPC@1 ≤ 5 μg/mL) | X (X = MPC@1 ≤ 5 μg/mL) | Z (Z = MPC@4 > 20 μg/mL) | Y (Y = 5 μg/mL < MPC@4 ≤ 20 μg/mL) | X (X = MPC@1 ≤ 5 μg/mL) | Y (Y = 5 μg/mL < MPC@4 ≤ 20 μg/mL) | X (X = MPC@4 ≤ 5 μg/mL) | X (X = MPC@4 ≤ 5 μg/mL) | X (X = Ki ≤ 0.1 μM) | X (X = Ki ≤ 0.1 μM) | > 7.00 | X (key: X = Ki ≤ 0.1 μM; Y = 0.1 μM < Ki ≤ 1 μM; Z = Ki > 1 μM) | > 7.00 | X (X = Ki ≤ 0.1 μM) | Y (Y = 5 μg/mL < MPC@4 ≤ 20 μg/mL) | X (X = MPC@4 ≤ 5 μg/mL)
3 | O=C([O-])c1c(OCC(F)F)ccc2c1O[B-](O)(O)CC2.[Na+].[Na+] [Compound 29, Disodium; 8-(2,2-difluoroethoxy)-4,4-dihydroxy-5-oxa-4-boranuidabicyclo[4.4.0]deca-1(6),7,9-triene-7-carboxylate] | X (X = MPC@4 ≤ 5 μg/mL) | X (X = MPC@1 ≤ 5 μg/mL) | Y (Y = 5 μg/mL < MPC@1 ≤ 20 μg/mL) | X (X = MPC@1 ≤ 5 μg/mL) | Y (Y = 5 μg/mL < MPC@4 ≤ 20 μg/mL) | X (X = MPC@4 ≤ 5 μg/mL) | X (X = MPC@1 ≤ 5 μg/mL) | X (X = MPC@4 ≤ 5 μg/mL) | X (X = MPC@4 ≤ 5 μg/mL) | Y (Y = 5 μg/mL < MPC@4 ≤ 20 μg/mL) | X (X = Ki ≤ 0.1 μM) | X (X = Ki ≤ 0.1 μM) | > 7.00 | X (key: X = Ki ≤ 0.1 μM; Y = 0.1 μM < Ki ≤ 1 μM; Z = Ki > 1 μM) | > 7.00 | X (X = Ki ≤ 0.1 μM) | Y (Y = 5 μg/mL < MPC@4 ≤ 20 μg/mL) | X (X = MPC@4 ≤ 5 μg/mL)
